Measured values reported in ChEMBL document CHEMBL1143877, “Xylose as a carrier for boron containing compounds” (2008).

Columns and labels:
T-24 [1] = test: Inhibition of tumor growth in human T24 cells xenografted sc dosed SCIDnodCA mouse; type: functional; design: scale not given: the % may be the effect or the level left
T-24 [2] = test: Inhibition of tumor growth in human T24 cells xenografted orally dosed SCIDnodCA mouse; type: functional; design: scale not given: the % may be the effect or the level left

Oc1ccc2cc(O[C@@H]3OC[C@@H](O)[C@H](O)[C@H]3O)ccc2c1 was tested, and the Activity (T-24 [1]) was 97% and the Activity (T-24 [2]) was 70%.
